# Assay results from patent US9233071B2, “Methods for treating retinopathy with extended therapeutic effect” (Allergan, Inc., priority 2004, dated 2016).
# Experiments:
# [1] = tested on: glaucoma; details: after stopping topical medication; cited from earlier work
# [2] = tested on: patients with glaucoma; test: Loss of IOP lowering upon cessation of chronic topical anti-glaucoma medication (Example A); assay type: in vivo, human; details: for mean IOP from baseline on day 28: day 28, after four weeks of topical medication; for mean IOP from baseline on day 30: day 30, after 2 days with no medication
# From the text: To examine loss or reduction of a therapeutic effect (i.e. IOP lowering) upon cessation of chronic medication administration used to treatment a chronic ocular condition, three different populations of patients with glaucoma were examined.
# 1. A population of twenty patients with glaucoma was examined.
# [3] = tested on: VEGF165-induced retinal vasculopathy; test: Remnant effect after intravitreal triamcinolone acetonide, VEGF165-induced retinal vasculopathy (Example 9); assay type: in vivo, Dutch-belted rabbits; details: 48 hours after VEGF165; 4 mg TA removed after one minute
# Experimental: An experiment was carried out which determined existence of a remnant effect (i.e. a therapeutic effect of the active agent when a therapeutic amount of the active agent was not longer present) of intravitreal triamcinolone. Six Dutch-belted rabbits were divided into two groups of three each. After standard pars plana vitrectomy, one group received 4 mg of the glucocorticoid triamcinolone acetonide (TA) in a 0.1 ml volume (Kenalog® 40), and the other group received 0.1 ml of a 5% PLGA (poly lactic/glycolic acid) solution. One minute later the TA or PLGA was removed with a subtotal vitrectomy and soft tip needle. Forty-eight hours after the surgery VEGF165 (500 ng/50 μl) was injected intravitreally via a 29 gauge needle to induce retinal vasculopathy and assess a pharmacological action of any remnant effect of either TA or PLGA. Assessment of retinal color fundus imaging, fluorescein angiography (FA), and fluorometry was made upon VEGF administration and 48 hours following such administration to assess leak from the retina vasculature as a result of VEGF165 administration, and the effect of either TA or PLGA on such leakage.
# [4] = 0.1% ophthalmic suspension, 1 drop 4 times a day (approximately 200 μg per day); cited from earlier work
compound,measurement,setting,value
Brc1c(NC2=NCCN2)ccc2nccnc12 [brimonidine],washout period (return to baseline IOP) of topical anti-glaucoma medication,[1],two to four and five
same,mean IOP from baseline on day 14,"[2]; day 14, after 14 days of topical medication",−2 mm Hg
same,mean IOP from baseline on day 15,"[2]; day 15, after 24 hours with no medication",−0.8 mm Hg
CNC[C@H](O)c1ccc(O)c(O)c1 [epinephrine],washout period (return to baseline IOP) of topical anti-glaucoma medication,[1],about three
CC(C)(C)NC[C@H](O)COc1nsnc1N1CCOCC1 [timolol],mean IOP from baseline on day 28,[2],−4 mm Hg
same,mean IOP from baseline on day 30,[2],−2 mm Hg
"CCNC(=O)CCC/C=C\C[C@@H]1[C@@H](/C=C/[C@@H](O)CCc2ccccc2)[C@H](O)C[C@@H]1O [Lumigan, Bimatoprost]",mean IOP from baseline on day 28,[2],−8 mm Hg
same,mean IOP from baseline on day 30,[2],−6 mm Hg
"CC1(C)O[C@@H]2C[C@H]3[C@@H]4CCC5=CC(=O)C=C[C@]5(C)[C@@]4(F)[C@@H](O)C[C@]3(C)[C@]2(C(=O)CO)O1 [TA, triamcinolone acetonide]","Fluorophotometry area under the curve, change from baseline",[3],3±65%
C[C@@H]1C[C@H]2[C@@H]3CCC4=CC(=O)C=C[C@]4(C)[C@@]3(F)[C@@H](O)C[C@]2(C)[C@@]1(O)C(=O)CO [dexamethasone],share of the topical dose that reaches the anterior segment,[4],about 1%
CCN[C@H]1C[C@H](C)S(=O)(=O)c2sc(S(N)(=O)=O)cc21 [dorzolamide],washout period (return to baseline IOP) of topical anti-glaucoma medication,[1],two to four
CC[C@@H]1C(=O)OC[C@@H]1Cc1cncn1C [pilocarpine],washout period (return to baseline IOP) of topical anti-glaucoma medication,[1],about 48 hours
